In patent US6455466B1, “Compositions and methods for preventing leaf yellowing in plants” (The Regents of the University of California, priority 2000, dated 2002):

Legend:
[1] = system: cut flowers of Alstroemeria (cv. diamond); experiment: Leaf chlorophyll content / leaf yellowing of cut Alstroemeria flowers held in treatment solution; format: in vivo
Method: The model system used in the experiments was cut stems of Alstroemeria an important cut flower whose flowers normally long outlast the relatively short-lived leaves.
In a preliminary experiment with cut flowers of Alstroemeria (cv. diamond), the flowers were placed in deionized water (DI) or a solution containing 1 μM TDZ. The chlorophyll content of the leaves was measured as described by Lichenhaler, Methods in Enzymology […] (1987). […] By 20 days, there was no detectable chlorophyll in the leaves of the control flowers (see, FIG. 1).

plants = conditions: cited from earlier work

Compound: O=C(Nc1ccccc1)Nc1cnns1 [TDZ, 1-phenyl-3-(1,2,3-thiadiazol-5-yl)urea]
- chlorophyll content of the leaves versus flowers held in deionized water ([1]; 1 μM TDZ solution, by 10 days): significantly higher than the concentration in leaves of flowers held in DI
- effectiveness of 24 hour pulse pre-treatment ([1]; 24 hour pulse pre-treatment with 10 μM TDZ compared with continuous 1 μM TDZ): as effective as continuous treatment with 1 μM TDZ
- chlorophyll content of the leaves ([1]; cut Alstroemeria flowers placed in solution containing 1 μM TDZ, throughout the experiment (FIG. 1)): remained high throughout the experiment
- effectiveness compared with BAP or GA3 ([1]; subsequent experiments, cut Alstroemeria flowers): much more effective than BAP or GA3
- metabolism by plants (plants): plants do not metabolize it
